How the values were obtained:
NALM-6 cells = experiment: Apoptosis induction, TUNNEL and flow cytometric assay; assay type: cell-based, human; details: compound alone, 100 μM
human leukemia cells = experiment: Ceramide or vincristine sensitivity of human leukemia cells; assay type: cell-based; details: co-administration with chemotherapeutic agent
Excerpt: FIG. 23: Effects of DDE-11 on ceramide or vincristine—sensitivity of human leukemia cells. Studies were done as described above for FIG. 17, but using DDE 11 as the BTK inhibitor.

BTK = BTK (Mus musculus, UniProt P35991); experiment: BTK inhibition assay of benzopyran derivatives; assay type: biochemical; details: for IC50: BTK inhibitory activity; for BTK inhibitory activity in words: kinase assays
Sequence of BTK (P35991 whole entry): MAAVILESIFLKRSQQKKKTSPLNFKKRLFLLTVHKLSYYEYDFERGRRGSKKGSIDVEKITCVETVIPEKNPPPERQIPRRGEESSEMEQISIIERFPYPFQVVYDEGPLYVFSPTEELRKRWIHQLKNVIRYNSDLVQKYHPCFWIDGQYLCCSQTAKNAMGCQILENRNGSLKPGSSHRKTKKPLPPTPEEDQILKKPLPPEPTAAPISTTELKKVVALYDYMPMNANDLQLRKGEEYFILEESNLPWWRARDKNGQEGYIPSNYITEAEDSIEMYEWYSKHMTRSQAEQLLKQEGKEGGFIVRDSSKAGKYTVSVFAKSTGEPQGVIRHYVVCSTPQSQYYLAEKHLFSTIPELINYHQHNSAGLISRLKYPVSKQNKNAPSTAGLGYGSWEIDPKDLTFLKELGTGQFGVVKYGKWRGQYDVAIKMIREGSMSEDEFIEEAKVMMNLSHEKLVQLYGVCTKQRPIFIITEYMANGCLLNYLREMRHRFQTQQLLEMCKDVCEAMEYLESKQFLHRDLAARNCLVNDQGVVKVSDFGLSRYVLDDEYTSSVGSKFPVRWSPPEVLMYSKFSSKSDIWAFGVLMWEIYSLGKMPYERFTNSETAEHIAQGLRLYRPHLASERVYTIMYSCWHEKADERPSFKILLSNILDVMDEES

RBL-2H3 rat mast cells = experiment: IgE/FcεRI receptor mediated leukotriene C4 release, RBL-2H3 mast cells; assay type: cell-based; details: RBL-2H3, IgE/DNP-BSA challenge, 30 min pre-incubation, 1-100 μM, N = 3-4, read-out: EC50 (mean ± SEM), inhibition of leukotriene C4 release
Experimental: Mast Cell Cultures. RBL-2H3 mast cells were a gift from Dr. Reuben P. Siraganian (Laboratory of Microbiology and Immunology, National Institute of Dental Research, National Institute of Health). The cells were maintained as monolayer cultures in 75- or 150-cm^2 flask in Eagle's essential medium supplemented with 20% fetal calf serum. Human fetal livers (16 to 21 weeks of gestational age) were obtained from prostaglandin-induced human abortuses. Subsequently, single cell suspensions were prepared and mononuclear cells were isolated by centrifugation on Ficoll-Hypaque gradients as described (Malaviya, R., et al., (1999) J Biol Chem, 274, 27028-27038). Isolated cells were cultured for 8 weeks in the presence of 100 ng/ml rhSCF, 2 ng/ml rhIL-4 (Malaviya, R., et al., (1999) J Biol Chem, 274, 27028-27038; Xia, H. Z., et al., (1997) J Immunol, 159, 2911-2921). Culture medium was replaced with fresh medium once a week for the first 2 weeks and twice a week thereafter. All human tissue specimens were used following the guidelines of the Parker Hughes Institute Institutional Review Board on the Use of Human Subjects in Research for secondary use of pathologic or surgical tissue. At the end of the 8 weeks the fetal liver derived human mast cell culture contained 70-90 percent mast cells, based on toluidine blue and tryptase staining (Xia, H. Z., et al., (1997) J Immunol, 159, 2911-2921).
Stimulation of Mast Cells. RBL-2H3 rat mast were sensitized with monoclonal anti-DNP IgE antibody (0.24 mg/ml) for 1 h at 37° C. in a 48-well tissue culture plate. Unbound IgE was removed by washing the cells with PIPES-buffered saline. After washing, PIPES-buffered saline containing 1 mM calcium chloride was added to the monolayers of the RBL-2H3 cells. The cells were challenged with 20 ng/ml DNP-BSA for 30 min at 37° C. The plate was centrifuged at 200 g for 10 min at 4° C. Supernatants were removed and saved. Fetal liver-derived human mast cells were resuspended in culture medium at a cell density of 5×10^6/ml and sensitized with human IgE (150 μg/ml) for 3 h at 4° C. After sensitization the cells were washed with tyrode buffer containing 1 mM calcium and 1 mM magnesium and challenged with mouse monoclonal anti-human IgE (40 μg/ml) for 30 min at 37° C. To study the effect of test drugs, RBL-2H3 rat mast cells or human mast cells were incubated with the drugs at the indicated concentrations or vehicle for 30 min prior to antigen challenge.
Mediator Release Assay. Leukotriene C4 levels were estimated in cell free supernatants of mast cells by immunoassay (Malaviya, R. and Abraham, S. N., (1995) Methods Enzymol, 253, 27-43).
Mast cells release large amounts of leukotrienes upon IgE receptor ligation. Because of the reported ability of LFM as a mast cell inhibitor, we utilized 13 analogues of LFM (Table 1) and examined their effect on IgE/FcεERI receptor mediated mast cell leukotriene C4 release. RBL-2H3 cells, a mucosal mast cell line, were treated with 5 different concentrations of the compounds ranging from 1 μM to 100 μM or vehicle for 30 min before challenge with antigen (DNP-BSA) at 37° C. Leukotriene C4 release was quantitated in the extracellular medium employing a previously described ELISA (Malaviya, R. and Abraham, S. N., (1995) Methods Enzymol, 253, 27-43).

| Compound | IC50 (BTK) | EC50 (RBL-2H3 rat mast cells) | melting point | other results |
| --- | --- | --- | --- | --- |
| CCCc1cc(=O)oc2c(C(=O)CC)c(O)cc(O)c12 [DDE11, 5,7-Dihydroxy-8-propanoyl-4-propyl-2H-1-benzopyran-2-one] | < 36.2 µM | – | – | apoptosis induction (NALM-6 cells): induces apoptosis; cytotoxicity of C2-CER and vincristine on co-administration (human leukemia cells): increaseed the cytotoxicity; BTK inhibitory activity in words (BTK): potent BTK inhibitors |
| CCCc1cc(=O)oc2cc(O)cc(O)c12 [DDE181, 5,7-Dihydroxy-4 propyl-2H-1-benzopyran-2-one] | < 45.4 µM | – | – | BTK inhibitory activity in words (BTK): potent BTK inhibitors |
| CCCc1cc(=O)oc2c(C=O)c(O)cc(O)c12 [DDE213, 5,7-Dihydroxy-8-carboxaldehyde-4-propyl-2H-1-benzopyran-2-one] | < 40.3 µM | – | – | BTK inhibitory activity in words (BTK): potent BTK inhibitors |
| CCc1cc(=O)oc2cc(O)cc(O)c12 [DDE214, 5,7-Dihydroxy-4-ethyl-2H-1-benzopyran-2-one] | < 48.5 µM | – | – | BTK inhibitory activity in words (BTK): potent BTK inhibitors |
| CCCc1cc(=O)oc2c(C(=O)CC)c(OC)cc(OC)c12 [DDE229] | > 329 µM | – | – | – |
| O=c1cc(-c2ccccc2)c2c(O)cc(O)cc2o1 [DDE270, 5,7-Dihydroxy-4-phenyl-2H-1-benzopyran-2-one] | 98.3 µM | – | – | – |
| CCCc1cc(=O)oc2c(C(C)=O)c(O)cc(O)c12 [DDE271, 5,7-Dihydroxy-8-acetyl-4-propyl-2H-1-benzopyran-2-one] | > 381 µM | – | – | – |
| CCCc1cc(=O)oc2c(C(=O)C(C)C)c(O)cc(O)c12 [DDE272] | > 344 µM | – | – | – |
| CCCc1cc(=O)oc2c(C(=O)c3ccccc3)c(O)cc(O)c12 [DDE355] | > 308 µM | – | – | – |
| CC(O)=C(C#N)C(=O)Nc1ccc(C(F)(F)F)cc1 [LFM, α-Cyano-β-hydroxy-β-methyl-N-[4-(trifluoromethyl)phenyl]-propenamide, reference compound] | – | 34 ± 14.5 µM | – | – |
| CC(O)=C(C#N)C(=O)Nc1ccc(Br)cc1 [LFM-A1, α-Cyano-β-hydroxy-β-methyl-N-(4-bromophenyl)propenamide] | – | 64 ± 13.9 µM | 213 to 214 °C | – |
| CC(O)=C(C#N)C(=O)Nc1ccc(Cl)cc1 [LFM-A2, α-Cyano-β-hydroxy-β-methyl-N-(4-chlorophenyl)propenamide] | – | 58 ± 13 µM | 209 to 211 °C | – |
| CC(O)=C(C#N)C(=O)Nc1ccc(F)cc1 [LFM-A3, α-Cyano-β-hydroxy-β-methyl-N-(4-fluorophenyl)propenamide] | – | > 100 µM | 165 to 166 °C | – |
| CC(O)=C(C#N)C(=O)Nc1ccccc1C(F)(F)F [LFM-A4, α-Cyano-β-hydroxy-β-methyl-N-[2-(trifluoromethyl)phenyl]-propenamide] | – | > 100 µM | 61 to 63 °C | – |
| CC(O)=C(C#N)C(=O)Nc1ccccc1Br [LFM-A5, α-Cyano-β-hydroxy-β-methyl-N-(2-bromophenyl)propenamide] | – | 46 ± 10 µM | 98 to 100 °C | – |

Now from value to compound, other results behind:

| IC50 (BTK) | EC50 (RBL-2H3 rat mast cells) | melting point | Compound | other results |
| --- | --- | --- | --- | --- |
| – | > 100 µM | 93 to 94 °C | CC(O)=C(C#N)C(=O)Nc1ccccc1Cl [LFM-A6, α-Cyano-β-hydroxy-β-methyl-N-(2-chlorophenyl)propenamide] | – |
| – | > 100 µM | 118 to 119 °C | CC(O)=C(C#N)C(=O)Nc1ccccc1F [LFM-A7, α-Cyano-β-hydroxy-β-methyl-N-(2-fluorophenyl)propenamide] | – |
| – | > 100 µM | 184 to 185 °C | CC(O)=C(C#N)C(=O)Nc1cccc(Br)c1 [LFM-A9, α-Cyano-β-hydroxy-β-methyl-N-(3-bromophenyl)propenamide] | – |
| – | 51 ± 12 µM | 184 to 187 °C | CC(O)=C(C#N)C(=O)Nc1cccc(Cl)c1 [LFM-A10, α-Cyano-β-hydroxy-β-methyl-N-(3-chlorophenyl)propenamide] | – |
| – | > 100 µM | 136 to 138 °C | CC(O)=C(C#N)C(=O)Nc1cccc(F)c1 [LFM-A11, α-Cyano-β-hydroxy-β-methyl-N-(3-fluorophenyl)propenamide] | – |
| – | 30 ± 5.6 µM | 182 to 183 °C | CC(O)=C(C#N)C(=O)Nc1ccc(OC(F)(F)F)cc1 [LFM-A12, α-Cyano-β-hydroxy-β-methyl-N-[4-(trifluoromethoxy)phenyl]-propenamide] | – |
| – | > 100 µM | 134 to 135 °C | CC(O)=C(C#N)C(=O)Nc1ccccc1 [LFM-A14, α-Cyano-β-hydroxy-β-methyl-N-(phenyl)propenamide] | – |
| – | – | 205 to 206 °C | C/C(O)=C(\C#N)C(=O)Nc1ccc(S(C)(=O)=O)cc1 [LFM-A15, α-Cyano-β-hydroxy-β-methyl-N-[4-(methylsulfonyl)phenyl]-propenamide] | – |
| – | – | 213 to 214 °C | C/C(O)=C(\C#N)C(=O)Nc1cccc(S(C)(=O)=O)c1 [LFM-A16] | – |
| – | – | 178 to 179 °C | C/C(O)=C(\C#N)C(=O)Nc1ccc(OC(F)(F)F)c(Br)c1 [LFM-A17, α-Cyano-β-hydroxy-β-methyl-N-[3-bromo-4-(trifluoromethoxy)-phenyl]propenamide] | – |
| – | – | 143 to 144 °C | C/C(O)=C(\C#N)C(=O)Nc1cc(Cl)ccc1Cl [LFM-A18, α-Cyano-β-hydroxy-β-methyl-N-(2,5-dichlorophenyl)-propenamide] | – |
| – | – | 181 °C | C/C(O)=C(\C#N)C(=O)Nc1ccc(Br)cc1Br [LFM-A19, α-Cyano-β-hydroxy-β-methyl-N-(2,4-dibromophenyl)-propenamide] | – |
| – | – | 143 to 144 °C | C/C(O)=C(\C#N)C(=O)Nc1ccc(Cl)cc1Cl [LFM-A20, α-Cyano-β-hydroxy-β-methyl-N-(2,4-dichlorophenyl)-propenamide] | – |

Source: patent US6753348B2, “BTK inhibitors and methods for their identification and use” (Parker Hughes Institute, priority 1998, dated 2004)
